Source: US20180185347A1, “TETRAHYDROCYCLOPENTA[B]INDOLE COMPOUNDS AND PHOSPHODIESTERASE INHIBITORS FOR THE TREATMENT OF THE SIGNS AND SYMPTOMS OF BHP” (Transition Therapeutics (Ireland 2) Limited, priority 2016, published 2018)
Entries after “also recorded” stand apart in the source; their conditions may differ.

Tests used:
[1] = system: PSA levels; conditions: healthy volunteers, any time point or dose, data of WO 2016040234; cited from earlier work
[2] = target: T1, 17-beta-Hydroxysteroid Dehydrogenase Type 2 (Homo sapiens, UniProt P37059); assay: Metabolism by 17-beta-HSD type 2; type: in vitro ADME
T1 sequence (P37059 1-387): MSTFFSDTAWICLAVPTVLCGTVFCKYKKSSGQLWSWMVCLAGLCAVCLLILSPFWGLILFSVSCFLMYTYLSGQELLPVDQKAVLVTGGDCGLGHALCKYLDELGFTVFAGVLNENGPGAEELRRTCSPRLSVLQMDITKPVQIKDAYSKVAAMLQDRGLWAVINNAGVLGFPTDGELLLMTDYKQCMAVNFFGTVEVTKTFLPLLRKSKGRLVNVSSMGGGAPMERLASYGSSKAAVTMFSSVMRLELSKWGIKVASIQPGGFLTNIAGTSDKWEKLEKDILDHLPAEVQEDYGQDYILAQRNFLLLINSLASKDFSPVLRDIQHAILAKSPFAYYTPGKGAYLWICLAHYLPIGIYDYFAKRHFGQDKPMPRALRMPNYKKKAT

[3] = QT / ECG assessment in clinical studies; type: in vivo, human; conditions: Study GPEC
[4] = Dog bioavailability; type: in vivo
[5] = system: LnCAP cells; assay: LnCAP gene expression; type: cell-based; conditions: Homo sapiens, read-out: LnCAP Gene Expression EC50 (nM) AR
[6] = system: PSA levels; assay: PSA in healthy subjects (Study GPBC, Phase 1); type: in vivo, human
Source text: The results of this study are illustrated in FIG. 6.

[7] = target: T2, serum hormone binding globulin (Homo sapiens, UniProt P04278); assay: Affinity to serum hormone binding globulin; conditions: at 10 μM
T2 sequence (P04278 30-402): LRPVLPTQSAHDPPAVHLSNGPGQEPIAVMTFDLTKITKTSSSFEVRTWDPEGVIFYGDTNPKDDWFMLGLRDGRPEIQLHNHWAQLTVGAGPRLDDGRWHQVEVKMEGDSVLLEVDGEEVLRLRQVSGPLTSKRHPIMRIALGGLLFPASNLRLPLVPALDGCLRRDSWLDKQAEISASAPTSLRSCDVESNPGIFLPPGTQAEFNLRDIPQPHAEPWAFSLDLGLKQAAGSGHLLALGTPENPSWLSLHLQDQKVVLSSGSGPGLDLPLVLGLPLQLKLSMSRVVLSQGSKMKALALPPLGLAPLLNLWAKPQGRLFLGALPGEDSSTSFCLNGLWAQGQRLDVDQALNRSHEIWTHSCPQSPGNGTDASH

[8] = Rat bioavailability; type: in vivo
[9] = target: T3, human androgen receptor (hAR) (Homo sapiens, UniProt P10275); assay: AR binding affinity (Ki)
T3 sequence (P10275 1-920): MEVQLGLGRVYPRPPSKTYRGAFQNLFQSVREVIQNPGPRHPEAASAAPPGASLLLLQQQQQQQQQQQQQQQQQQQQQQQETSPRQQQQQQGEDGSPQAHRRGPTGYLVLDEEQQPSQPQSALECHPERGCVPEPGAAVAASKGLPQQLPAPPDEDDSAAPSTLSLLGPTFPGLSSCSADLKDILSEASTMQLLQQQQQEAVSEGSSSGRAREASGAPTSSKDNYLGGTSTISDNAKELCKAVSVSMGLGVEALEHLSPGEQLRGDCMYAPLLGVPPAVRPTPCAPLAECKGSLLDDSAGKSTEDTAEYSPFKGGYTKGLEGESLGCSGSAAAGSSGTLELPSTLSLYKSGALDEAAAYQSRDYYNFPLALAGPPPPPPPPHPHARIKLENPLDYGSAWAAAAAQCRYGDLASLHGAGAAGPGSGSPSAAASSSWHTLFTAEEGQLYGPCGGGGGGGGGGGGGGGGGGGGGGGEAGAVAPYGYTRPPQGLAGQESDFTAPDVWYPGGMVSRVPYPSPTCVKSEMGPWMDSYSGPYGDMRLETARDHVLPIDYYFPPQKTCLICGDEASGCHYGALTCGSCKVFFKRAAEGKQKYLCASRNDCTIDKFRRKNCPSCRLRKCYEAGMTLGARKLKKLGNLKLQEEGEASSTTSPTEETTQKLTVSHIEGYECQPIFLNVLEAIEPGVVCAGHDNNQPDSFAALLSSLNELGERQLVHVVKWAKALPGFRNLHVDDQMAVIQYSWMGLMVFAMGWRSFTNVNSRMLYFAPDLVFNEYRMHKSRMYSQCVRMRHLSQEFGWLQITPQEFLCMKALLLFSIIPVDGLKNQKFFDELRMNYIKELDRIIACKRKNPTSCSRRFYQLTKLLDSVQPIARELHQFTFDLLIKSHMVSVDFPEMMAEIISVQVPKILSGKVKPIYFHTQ

[10] = system: dogs; assay: Dog toxicology program: prostate weight and atrophy; type: in vivo; design: key to Prostate weight (mean % decrease): “”: no effect observed; conditions: for Prostate weight (mean % decrease): dog
[11] = system: orchidectomized rats; assay: Testosterone induced prostate / seminal vesicle growth in delayed ORX rat model; type: in vivo
Source text: Orchidectomized (ORX) and sham-operated Wistar male rats were used (orchidectomized at 8 weeks of age and allowed to waste for 4 weeks). […] Rats were randomized and placed into treatment groups (n=6) based on body weight. Route of administration for all groups except testosterone enanthate (TE was given sub-cutaneously) was oral. At the end of 2 weeks of daily rats were euthanized, weighed & tissue harvested. Levator ani, prostates, and seminal vesicles were collected from each animal. Results are plotted as means±SE.

CC(C)OC(=O)N[C@H]1Cc2c(n(Cc3ccccn3)c3ccc(C#N)cc23)C1 [compound of Formula II, (S)-(7-cyano-4-pyridin-2-ylmethyl-1,2,3,4-tetrahydro-cyclopenta[b]indol-2-yl)-carbamic acid isopropyl ester]
PSA levels, change from baseline vs placebo [1]: no significant changes from baseline
metabolism by 17-beta-Hydroxysteroid Dehydrogenase Type 2 class of enzymes [2]: not metabolized
ECG data [3]: did not show evidence of clinically meaningful changes
bioavailability ([4]; in vivo, read-out: Dog F %): 58%
Dog F % ([4]; listed as TT701): 58%
EC50 [5]: 1.64 nM
PSA test, effect on the prostate ([6]; Study GPBC, healthy subjects, 1 mg to 75 mg daily for 28 days): neutral to negative effect (decreasing PSA)
PSA ([6]; clinical studies, any dose level (up to 75 mg doses)): No increases in PSA were observed
affinity to serum hormone binding globulin [7]: none detected
bioavailability ([8]; in vivo, read-out: Rat F %): 63%
Rat F % ([8]; listed as TT701): 63%
binding affinity for hAR compared to other nuclear hormone receptors [9]: > 500 fold
Prostate weight (mean % decrease) ([10]; 1+ months, 3 mg/kg/day): “”
Prostate weight (mean % decrease) ([10]; 1+ months, 30 mg/kg/day): “”
Prostate weight (mean % decrease) ([10]; 1+ months, 150 mg/kg/day): “”
Prostate weight (mean % decrease) ([10]; 6+ months, 3 mg/kg/day): ^↓63%
Prostate weight (mean % decrease) ([10]; 6+ months, 30 mg/kg/day): ^↓66%
Prostate weight (mean % decrease) ([10]; 6+ months, 150 mg/kg/day): ^↓75%
Prostate weight (mean % decrease) ([10]; 12 months, 3 mg/kg/day): ^↓60%
Prostate weight (mean % decrease) ([10]; 12 months, 10 mg/kg/day): ^↓62%
Prostate weight (mean % decrease) ([10]; 12 months, 100 mg/kg/day): ^↓80%
decreases in prostate weight ([10]; dogs, by 3 months (so in the source)): 60-75%
decrease in prostate size ([10]; normal dogs, six-month treatment period): 60%
prostate weights, Abs(Dif)-LSD vs ORX + TE control ([11]; 1 mg/kg/d + 3 mg/kg/d): −0.11
seminal vesicle wet weights, Abs(Dif)-LSD vs ORX + TE control ([11]; 1 mg/kg/d + 3 mg/kg/d): −0.34
prostate weights, Abs(Dif)-LSD vs ORX + TE control ([11]; 1 mg/kg/d + 10 mg/kg/d): 0.036
seminal vesicle wet weights, Abs(Dif)-LSD vs ORX + TE control ([11]; 1 mg/kg/d + 10 mg/kg/d): 0.078
prostate weights, Abs(Dif)-LSD vs ORX + TE control ([11]; 1 mg/kg/d + 30 mg/kg/d): 0.025
prostate and seminal vesical weights normalized to body weight compared to TE alone ([11]; ORX rat, TE 1 mg/kg/d + 3, 10 and 30 mg/kg/d, 2 weeks): decreasing prostate weight and seminal vesical weights; also recorded: reduced testosterone induced effects on prostate size
